According to patent US11377425B1, “Small molecule modulators of IL-17” (LEO Pharma A/S, priority 2018, dated 2022):

Each molecule was assayed against T1, human IL-17AA (Homo sapiens, UniProt Q16552) (assay: IL-8 release assay in human epithelial keratinocytes adult (HEKa)). Conditions: HEKa cells, 3 ng/mL HEK-human IL-17AA + 10 ng/mL human TNFalpha; read-out: Rel EC50 IL-8 release assay.
T1 construct: host or cells: HEK (human embryonic kidney) cells
T1 sequence (Q16552 24-155): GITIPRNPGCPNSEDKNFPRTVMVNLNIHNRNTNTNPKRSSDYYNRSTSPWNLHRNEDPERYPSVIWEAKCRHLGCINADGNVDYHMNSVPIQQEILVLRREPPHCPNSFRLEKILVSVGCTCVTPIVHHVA
Format: cell-based
Method in brief: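 IL-8 release, quantified by HTRF and normalized to controls, reports IL-17 signaling in HEKa cells treated with compound plus final 3 ng/mL IL-17AA (HEK-derived) and 10 ng/mL TNF-alpha for 68-72 h; TNF-alpha-only wells set 100% inhibition. Four-parameter logistic fits (r^2>0.9) give relative IC50 and Emax; PrestoBlue flags cytotoxicity.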

Q: With Cc1n[nH]c(C)c1-c1ccc(NC(=O)[C@@H](NC(=O)c2ccnn2C)C(C)C2CCCCC2)cc1 (stereo partly drawn) [Example 220, N-[(1S)-2-cyclohexyl-1-[[4-(3,5-dimethyl-1H-pyrazol-4-yl)phenyl]carbamoyl]propyl]-2-methyl-pyrazole-3-carboxamide] as the molecule, how does the EC50 read?
A: < 0.1 µM

Q: With CC(C)n1nccc1C(=O)N[C@H](C(=O)Nc1ccc(-c2nncn2C)cc1)C1CCCCCC1 [Example 349, N-[(1S)-1-cycloheptyl-2-[4-(4-methyl-1,2,4-triazol-3-yl)anilino]-2-oxo-ethyl]-2-isopropyl-pyrazole-3-carboxamide] as the molecule, how does the EC50 read?
A: 0.1 to 1 µM

Q: Which EC50 does the source give for CC(C)n1nccc1C(=O)N[C@H](C(=O)Nc1ccc(-c2[nH]cnc2C2CC2)cc1)C(C1CC1)C1CC1 [Example 381, N-[(1S)-2,2-dicyclopropyl-1-[[4-(4-cyclopropyl-1H-imidazol-5-yl)phenyl]carbamoyl]ethyl]-2-isopropyl-pyrazole-3-carboxamide] here?
A: 0.1 to 1 µM

Q: CCn1nccc1C(=O)N[C@H](C(=O)Nc1ccc(-n2cnc(C)c2C)cc1)C(C1CC1)C1CC1 [Example 369, N-[(1S)-1-(dicyclopropylmethyl)-2-[4-(4,5-dimethylimidazol-1-yl)anilino]-2-oxo-ethyl]-2-ethyl-pyrazole-3-carboxamide] was tested. Which EC50 did it give?
A: 0.1 to 1 µM

Q: Which EC50 does the source give for Cc1n[nH]c(C)c1-c1ccc(NC(=O)[C@@H](NC(=O)c2cnc3ccccn23)C2CCCCC2)cc1 [Example 293, N-[(1S)-1-cyclohexyl-2-[4-(3,5-dimethyl-1H-pyrazol-4-yl)anilino]-2-oxo-ethyl]imidazo[1,2-a]pyridine-3-carboxamide] here?
A: 0.1 to 1 µM

Q: For Cc1n[nH]c(C)c1-c1ccc(NC(=O)[C@@H](NC(=O)c2ccnn2C(C)CO)C(C2CCC2)C2CCC2)cc1 (single isomer, unassigned) [Example 124], which EC50 is on record?
A: < 0.1 µM

Q: For Cc1n[nH]c(CO)c1-c1ccc(NC(=O)[C@@H](NC(=O)c2ccnn2C)C2CCCCC2)cc1 [Example 445, N-[(1S)-1-cyclohexyl-2-[4-[5-(hydroxymethyl)-3-methyl-1H-pyrazol-4-yl]anilino]-2-oxo-ethyl]-2-methyl-pyrazole-3-carboxamide], which EC50 is on record?
A: 0.1 to 1 µM

Q: For Cc1n[nH]c(C)c1-c1ccc(NC(=O)C(NC(=O)c2ccnn2C(C)C)C2CCCCCCC2)cc1 (single isomer, unassigned) [Example 153, N-[1-cyclooctyl-2-[4-(3,5-dimethyl-1H-pyrazol-4-yl)anilino]-2-oxo-ethyl]-2-(1-methylethyl)pyrazole-3-carboxamide], which EC50 is on record?
A: 0.1 to 1 µM

Q: For Cc1n[nH]c(C)c1-c1ccc(NC(=O)[C@@H](NC(=O)C(F)(F)c2ccccc2)C2CCCCC2)cc1 [Example 55, N-[(1S)-1-cyclohexyl-2-[4-(3,5-dimethyl-1H-pyrazol-4-yl)anilino]-2-oxo-ethyl]-2,2-difluoro-2-phenyl-acetamide], which EC50 is on record?
A: 0.1 to 1 µM

Q: How did the EC50 turn out when Cc1n[nH]c(C)c1-c1ccc(NC(=O)[C@@H](NC(=O)C(C)(C)C)C(C2CC2)C2CC2)cc1 [Example 168, N-[(1S)-1-(dicyclopropylmethyl)-2-[4-(3,5-dimethyl-1H-pyrazol-4-yl)anilino]-2-oxo-ethyl]-2,2-dimethyl-propanamide] was run?
A: > 1 µM

Q: Cc1n[nH]c(C)c1-c1ccc(NC(=O)C(NC(=O)c2ccnn2C)C2CCCc3cc(F)ccc32)cc1 (single isomer, unassigned) [Example 259] was tested. Which EC50 did it give?
A: > 1 µM

Q: How did the EC50 turn out when Cc1n[nH]c(C)c1-c1ccc(NC(=O)[C@H](CC(C)C)NC(=O)c2ccnn2C)cc1 [Example 298] was run?
A: > 1 µM

Q: How did the EC50 turn out when Cc1n[nH]c(C)c1-c1ccc(NC(=O)[C@@H](NC(=O)c2ccnn2C)C2CCC(C(F)(F)F)CC2)cc1 (single isomer, unassigned) [Example 269] was run?
A: 0.1 to 1 µM

Q: For CCn1nncc1C(=O)N[C@H](C(=O)Nc1ccc(-c2c(C)n[nH]c2C)cc1)[C@H]1CC[C@H](C)CC1 [Example 149, N-[(1S)-2-[4-(3,5-dimethyl-1H-pyrazol-4-yl)anilino]-1-(4-methylcyclohexyl)-2-oxo-ethyl]-3-ethyl-triazole-4-carboxamide], which EC50 is on record?
A: 0.1 to 1 µM

Q: How did the EC50 turn out when Cc1nc[nH]c1-c1ccc(NC(=O)[C@@H](NC(=O)c2ccnn2C(C)C)C(C2CC2)C2CC2)cc1 [Example 379, N-[(1S)-1-(dicyclopropylmethyl)-2-[4-(4-methyl-1H-imidazol-5-yl)anilino]-2-oxo-ethyl]-2-isopropyl-pyrazole-3-carboxamide] was run?
A: > 1 µM

Q: For Cc1n[nH]c(C)c1-c1ccc(NC(=O)[C@H](NC(=O)c2ccnn2C)C2CCCCC2)cc1 [Example 103, N-[(1R)-1-cyclohexyl-2-[4-(3,5-dimethyl-1H-pyrazol-4-yl)anilino]-2-oxo-ethyl]-2-methyl-pyrazole-3-carboxamide], which EC50 is on record?
A: > 1 µM

Q: For Cc1n[nH]c(C)c1-c1ccc(NC(=O)[C@@H](NC(=O)c2ccnn2C(CF)CF)C(C2CC2)C2CC2)cc1 [Example 217], which EC50 is on record?
A: < 0.1 µM

Q: For Cc1n[nH]c(C)c1-c1ccc(NC(=O)[C@@H](NC(=O)c2csc3cnccc23)C2CCCCC2)cc1 [Example 286, N-[(1S)-1-cyclohexyl-2-[4-(3,5-dimethyl-1H-pyrazol-4-yl)anilino]-2-oxo-ethyl]thieno[2,3-c]pyridine-3-carboxamide], which EC50 is on record?
A: 0.1 to 1 µM

Q: For Cc1n[nH]c(N)c1-c1ccc(NC(=O)[C@@H](NC(=O)c2ccnn2C)C2CCCCC2)cc1 [Example 449, N-[(1S)-2-[4-(3-Amino-5-methyl-1H-pyrazol-4-yl)anilino]-1-cyclohexyl-2-oxo-ethyl]-2-methyl-pyrazole-3-carboxamide], which EC50 is on record?
A: 0.1 to 1 µM

Q: For Cc1n[nH]c(C)c1-c1ccc(NC(=O)[C@@H](NC(=O)c2c[nH]c3ncccc23)C2CCCCC2)cc1 [Example 65, N-[(1S)-1-cyclohexyl-2-[4-(3,5-dimethyl-1H-pyrazol-4-yl)anilino]-2-oxo-ethyl]-1H-pyrrolo[2,3-b]pyridine-3-carboxamide], which EC50 is on record?
A: > 1 µM

Q: For CCn1nccc1C(=O)N[C@H](C(=O)Nc1ccc(-c2c(C)n[nH]c2C)cc1)C1CCCCC1 [Example 9, N-[(1S)-1-cyclohexyl-2-[4-(3,5-dimethyl-1H-pyrazol-4-yl)anilino]-2-oxo-ethyl]-2-ethyl-pyrazole-3-carboxamide], which EC50 is on record?
A: < 0.1 µM

Q: For Cc1n[nH]c(C)c1-c1ccc(NC(=O)[C@@H](NC(=O)c2ccnn2C)C2C[C@@H](C)C[C@@H](C)C2)cc1 (stereo partly drawn) [Example 146, N-[(1S)-1-[(3R,5S)-3,5-dimethylcyclohexyl]-2-[4-(3,5-dimethyl-1H-pyrazol-4-yl)anilino]-2-oxo-ethyl]-2-methyl-pyrazole-3-carboxamide], which EC50 is on record?
A: < 0.1 µM

Q: With Cc1n[nH]c(C)c1-c1ccc(NC(=O)[C@@H](NC(=O)c2ccnn2CCC(C)O)[C@H]2CC[C@H](C)CC2)cc1 (stereo partly drawn) [Example 203, N-[(1S)-2-[4-(3,5-dimethyl-1H-pyrazol-4-yl)anilino]-1-(trans-4-methylcyclohexyl)-2-oxo-ethyl]-2-(3-hydroxybutyl)pyrazole-3-carboxamide] as the molecule, how does the EC50 read?
A: < 0.1 µM

Q: With Cc1n[nH]c(C)c1-c1ccc(NC(=O)[C@@H](NC(=O)c2ccnn2CC(F)(F)F)C2CCCCC2)cc1 [Example 29] as the molecule, how does the EC50 read?
A: 0.1 to 1 µM

Q: With Cc1n[nH]c(C)c1-c1ccc(NC(=O)[C@H](NC(=O)c2ccnn2C(C)C)C2CCC3(CC2)CC3)cc1 [Example 111, N-[(1R)-2-[4-(3,5-dimethyl-1H-pyrazol-4-yl)anilino]-2-oxo-1-spiro[2.5]octan-6-yl-ethyl]-2-isopropyl-pyrazole-3-carboxamide] as the molecule, how does the EC50 read?
A: > 1 µM
